# Assay results published in patent US8236835B2, “Heterocyclic inhibitors of stearoyl-CoA desaturase” (Novartis AG, priority 2006, dated 2012).
row,melting point [°C],SMILES
1,124 to 126,"Cc1nc(N2CCCC(CCc3ccccc3)C2=O)sc1C(=O)NCc1ccccc1 (stereo not shown) [Example 3.1, N-benzyl-4-methyl-2-(2-oxo-3-phenethylpiperidin-1-yl)thiazole-5-carboxamide]"
2,142 to 143,"Cc1nc(N2CCC(NCCC(F)(F)F)C2=O)sc1C(=O)NCc1ccc(F)cc1 (stereo not shown) [Example 5.2, N-(4-fluorobenzyl)-4-methyl-2-(2-oxo-3-(3,3,3-trifluoropropylamino)pyrrolidin-1-yl)thiazole-5-carboxamide]"
3,140 to 141,"Cc1nc(N2CCCC(CCCc3ccccc3)C2=O)sc1C(=O)NCc1ccccc1 (stereo not shown) [Example 3.2, N-benzyl-4-methyl-2-(2-oxo-3-(3-phenylpropyl)piperidin-1-yl)thiazole-5-carboxamide]"
4,125 to 126,"Cc1nc(N2CCCC(NCC3CC3)C2=O)sc1C(=O)NCc1ccccc1 (stereo not shown) [Example 5.4, N-benzyl-2-(3-(cyclopropylmethylamino)-2-oxopiperidin-1-yl)-4-methylthiazole-5-carboxamide]"
5,203 to 204,"Cc1nc(N2C[C@H](O)CC2=O)sc1C(=O)NCc1ccccc1 [Example 7.1, (R)-N-benzyl-2-(4-hydroxy-2-oxopyrrolidin-1-yl)-4-methylthiazole-5-carboxamide]"
6,39 to 40,"Cc1nc(N2CCCC(NCc3ccc(C(F)(F)F)cc3)C2=O)sc1C(=O)NCc1ccccc1 (stereo not shown) [Example 5.3, N-benzyl-4-methyl-2-(2-oxo-3-(4-(trifluoromethyl)benzylamino)piperidin-1-yl)thiazole-5-carboxamide]"
7,206 to 208,"Cc1nc(N2CCC/C(=C\c3cccnc3)C2=O)sc1C(=O)NCc1ccccc1 [Example 10.2, N-benzyl-4-methyl-2-(2-oxo-3-(pyridin-3-ylmethylene)piperidin-1-yl)thiazole-5-carboxamide]"
8,171 to 172,"CCc1ccc(/C=C2\CCCN(c3nc(C)c(C(=O)NCc4ccccc4)s3)C2=O)s1 [Example 10.1, N-benzyl-2-(3-((5-ethylthiophen-2-yl)methylene)-2-oxopiperidin-1-yl)-4-methylthiazole-5-carboxamide]"
9,158 to 160,"Cc1nc(N2CCC(Cc3ccc(OC(F)(F)F)cc3)C2=O)sc1C(=O)NCc1cccnc1 (stereo not shown) [Example 8.1, 4-methyl-2-(2-oxo-3-(4-(trifluoromethoxy)benzyl)pyrrolidin-1-yl)-N-(pyridin-3-ylmethyl)thiazole-5-carboxamide]"
10,123 to 124,"Cc1nc(N2CCC(NCc3ccc(F)cc3)C2=O)sc1C(=O)NCc1ccc(F)cc1 (stereo not shown) [Example 5.1, N-(4-fluorobenzyl)-2-(3-(4-fluorobenzylamino)-2-oxopyrrolidin-1-yl)-4-methylthiazole-5-carboxamide]"

# The next lines start with the compound.
row,SMILES,melting point [°C]
1,"Cc1nc(N2CCC(Cc3ccc(OC(F)F)cc3)C2=O)sc1C(=O)NCc1ccccc1 (stereo not shown) [Example 2.5, N-benzyl-2-(3-(4-(difluoromethoxy)benzyl)-2-oxopyrrolidin-1-yl)-4-methylthiazole-5-carboxamide]",132 to 133
2,"Cc1nc(N2CC(Cc3ccccc3)CC2=O)sc1C(=O)NCc1ccccc1 (stereo not shown) [Example 6, N-benzyl-2-(4-benzyl-2-oxopyrrolidin-1-yl)-4-methylthiazole-5-carboxamide]",143 to 144
3,"Cc1nc(N2CCC(Cc3ccc(F)cc3)C2=O)sc1C(=O)NCc1cccnc1 (stereo not shown) [Example 8, 2-(3-(4-fluorobenzyl)-2-oxopyrrolidin-1-yl)-4-methyl-N-(pyridin-3-ylmethyl)thiazole-5-carboxamide]",169 to 170
4,"Cc1nc(N2CCCC(Cc3ccc(C(F)(F)F)cc3)C2=O)sc1C(=O)NCc1ccccc1 (stereo not shown) [Example 2.6, N-benzyl-4-methyl-2-(2-oxo-3-(4-(trifluoromethyl)benzyl)piperidin-1-yl)thiazole-5-carboxamide]",217 to 218
5,"Cc1nc(N2C[C@@H](O)CC2=O)sc1C(=O)NCc1ccccc1 [Example 7, (S)-N-benzyl-2-(4-hydroxy-2-oxopyrrolidin-1-yl)-4-methylthiazole-5-carboxamide]",203 to 204
6,"Cc1nc(N2CCCC(Cc3ccc(F)cc3)C2=O)sc1C(=O)NCc1ccccc1 (stereo not shown) [Example 2.12, N-benzyl-2-(3-(4-fluorobenzyl)-2-oxopiperidin-1-yl)-4-methylthiazole-5-carboxamide]",154 to 155
7,"Cc1nc(N2CCCC(Cc3ccc(F)cc3)C2=O)sc1C(=O)NCc1cccc(F)c1 (stereo not shown) [Example 2.13, N-(3-fluorobenzyl)-2-(3-(4-fluorobenzyl)-2-oxopiperidin-1-yl)-4-methylthiazole-5-carboxamide]",173 to 175
8,"COc1ccc(CC2CCCN(c3nc(C)c(C(=O)NCc4ccccc4)s3)C2=O)cc1 (stereo not shown) [Example 2.9, N-benzyl-2-(3-(4-methoxybenzyl)-2-oxopiperidin-1-yl)-4-methylthiazole-5-carboxamide]",116 to 118
9,"Cc1nc(N2CCCC(Cc3ccccc3)C2=O)sc1C(=O)NCc1ccccc1 (stereo not shown) [Example 2.11, N-benzyl-2-(3-benzyl-2-oxopiperidin-1-yl)-4-methylthiazole-5-carboxamide]",162 to 164
10,"Cc1nc(N2CCC(NCCC3CC3)C2=O)sc1C(=O)NCc1ccc(F)cc1 (stereo not shown) [Example 5, 2-(3-(2-cyclopropylethylamino)-2-oxopyrrolidin-1-yl)-N-(4-fluorobenzyl)-4-methylthiazole-5-carboxamide]",151 to 152
11,"Cc1nc(N2CCC(Cc3ccc(OC(F)F)cc3)C2=O)sc1C(=O)NCc1ccc(F)cc1 (stereo not shown) [Example 2.2, 2-(3-(4-(difluoromethoxy)benzyl)-2-oxopyrrolidin-1-yl)-N-(4-fluorobenzyl)-4-methylthiazole-5-carboxamide]",143 to 145
12,"Cc1nc(N2CCC(Cc3ccc(C(F)(F)F)cc3)C2=O)sc1C(=O)NCc1ccccc1 (stereo not shown) [Example 2.4, N-benzyl-4-methyl-2-(2-oxo-3-(4-(trifluoromethyl)benzyl)pyrrolidin-1-yl)thiazole-5-carboxamide]",174 to 175
13,"Cc1nc(N2CCC(Cc3ccc(C(F)(F)F)cc3)C2=O)sc1C(=O)NCc1ccc(F)cc1 (stereo not shown) [Example 2, N-(4-fluorobenzyl)-4-methyl-2-(2-oxo-3-(4-(trifluoromethyl)benzyl)pyrrolidin-1-yl)thiazole-5-carboxamide]",175 to 176
14,"Cc1nc(N2CCCC(Cc3cccc(F)c3)C2=O)sc1C(=O)NCc1ccccc1 (stereo not shown) [Example 2.8, N-benzyl-2-(3-(3-fluorobenzyl)-2-oxopiperidin-1-yl)-4-methylthiazole-5-carboxamide]",170 to 171
15,"Cc1nc(N2CCC(CC3CC3)C2=O)sc1C(=O)NCc1ccc(F)cc1 (stereo not shown) [Example 3, 2-(3-(cyclopropylmethyl)-2-oxopyrrolidin-1-yl)-N-(4-fluorobenzyl)-4-methylthiazole-5-carboxamide]",153 to 155
16,"Cc1nc(N2CCCC(C(O)c3ccccc3)C2=O)sc1C(=O)NCc1ccccc1 (stereo not shown) [Example 10, N-benzyl-2-(3-(hydroxy(phenyl)methyl)-2-oxopiperidin-1-yl)-4-methylthiazole-5-carboxamide]",74 to 75
17,"Cc1nc(N2CCC(Cc3ccc(F)cc3)C2=O)sc1C(=O)NCc1ccc(F)cc1 (stereo not shown) [Example 2.1, N-(4-fluorobenzyl)-2-(3-(4-fluorobenzyl)-2-oxopyrrolidin-1-yl)-4-methylthiazole-5-carboxamide]",196 to 197
18,"Cc1nc(N2CCCC2=O)sc1C(=O)NCc1ccccc1 [Example 1, N-benzyl-4-methyl-2-(2-oxopyrrolidin-1-yl)thiazole-5-carboxamide]",222 to 224
19,"Cc1nc(N2CCC(Cc3ccc(OC(F)(F)F)cc3)C2=O)sc1C(=O)NCc1ccc(F)cc1 (stereo not shown) [Example 2.3, N-(4-fluorobenzyl)-4-methyl-2-(2-oxo-3-(4-(trifluoromethoxy)benzyl)pyrrolidin-1-yl)thiazole-5-carboxamide]",165 to 166
20,"Cc1nc(N2CCCC(Cc3cc(F)ccc3F)C2=O)sc1C(=O)NCc1ccccc1 (stereo not shown) [Example 2.10, N-benzyl-2-(3-(2,5-difluorobenzyl)-2-oxopiperidin-1-yl)-4-methylthiazole-5-carboxamide]",144 to 145
21,"Cc1ccc(CC2CCCN(c3nc(C)c(C(=O)NCc4ccccc4)s3)C2=O)cc1 (stereo not shown) [Example 2.7, N-benzyl-4-methyl-2-(3-(4-methylbenzyl)-2-oxopiperidin-1-yl)thiazole-5-carboxamide]",110 to 113
22,"Cc1nc(N2CCCCC2=O)sc1C(=O)NCc1ccccc1 [Example 1.2, N-benzyl-4-methyl-2-(2-oxopiperidin-1-yl)thiazole-5-carboxamide]",175 to 176
23,"Cc1nc(N2CCCC(Cc3cccnc3)C2=O)sc1C(=O)NCc1ccccc1 (stereo not shown) [Example 11, N-benzyl-4-methyl-2-(2-oxo-3-(pyridin-3-ylmethyl)piperidin-1-yl)thiazole-5-carboxamide]",140 to 141
24,"Cc1nc(N2CCCC(Cc3ccc(C(F)(F)F)cc3)C2=O)sc1C(=O)NCc1cccc(F)c1 (stereo not shown) [Example 2.14, N-(3-fluorobenzyl)-4-methyl-2-(2-oxo-3-(4-(trifluoromethyl)benzyl)piperidin-1-yl)thiazole-5-carboxamide]",177 to 178
